In patent US4698352A, “4-oxo-1,4-dihydronicotinic acid derivatives, salts thereof, and antibacterial agents containing the same” (Toyama Chemical Co., Ltd., priority 1982, dated 1987) one finds MIC data, which are given here for four molecules.

In brackets after ≈: the same amount, converted by molar mass. Where two headings read alike, the source gives them in different places.

Test in all cases: Antibacterial activity (MIC), agar dilution
What all share (format): cell-based
Background: Agar dilution tests growth on a series of plates holding different concentrations.

The test system of one assay is Ps. aeruginosa S-68. As to conditions: Pseudomonas aeruginosa, S68; Ps. aeruginosa S-68; 10^6 cells per ml; 37° C., 20 hours; read-out: MIC. From the text: (§1) The amount of bacteria inoculated was 10^4 cells per plate (10^6 cells per ml).
The next assay relates to Ent. cloacae IID977. The note with it: Enterobacter cloacae, IID977, 20 h, Ent. cloacae IID977; 10^6 cells per ml; 37° C., 20 hours; read-out: MIC.
Source text: as §1

The next assay relates to St. aureus FDA209P. As to conditions: Staphylococcus aureus, FDA209P, 20 h.
Source text: as §1

The next assay has as its system Ps. aeruginosa IFO3445. As to conditions: Pseudomonas aeruginosa; Ps. aeruginosa IFO3445; 10^6 cells per ml; 37° C., 20 hours; read-out: MIC.
Source text: as §1

The subject of another assay is Kl. pneumoniae Y-41. As to conditions: Klebsiella pneumoniae, Y41, 10^6 cells per ml, 37° C., 20 hours, read-out: MIC.
Source text: as §1

A further assay concerns E. coli NIHJ JC-2. As to conditions: Escherichia coli, NIHJJC2, 20 h.
Source text: as §1

The next assay deals with Aci. antitratus A-6. As to conditions: 20 h, Aci. antitratus A-6; 10^6 cells per ml; 37° C., 20 hours; read-out: MIC.
Source text: as §1

A further assay deals with Kl. pneumoniae Y-50. As to conditions: Klebsiella pneumoniae, Y50, 20 h, 10^6 cells per ml, 37° C., read-out: MIC.
Source text: as §1

A further assay has as its system Pro. morganii T-216. As to conditions: Morganella morganii, 37° C.
Source text: as §1

Another assay relates to E. coli TK-111. As to conditions: Escherichia coli, TK111, 20 h, E. coli TK-111; 10^6 cells per ml; 37° C., 20 hours; read-out: MIC.
Source text: as §1

The next assay concerns Pro. vulgaris GN3027. As to conditions: Proteus vulgaris, GN3027, 20 h, Pro. vulgaris GN3027; 10^6 cells per ml; 37° C., 20 hours; read-out: MIC.
Source text: as §1

A further assay concerns Pro. mirabilis T-111. The note with it: Proteus mirabilis, 37° C.
Source text: as §1

A further assay concerns St. aureus F-137*. The note with it: Staphylococcus aureus, 20 h, St. aureus F-137, penicillinase-producing; 10^6 cells per ml; read-out: MIC.
Source text: as §1
(§2) * Penicillinase-producing bacteria

The next assay has as its system Ps. aeruginosa GN3379*. The note with it: Pseudomonas aeruginosa, 20 h; Ps. aeruginosa GN3379, penicillinase-producing; 10^6 cells per ml; read-out: MIC.
Source text: as §1, §2

Another assay concerns E. coli TK-3*. The note with it: Escherichia coli, 20 h, E. coli TK-3, penicillinase-producing; 10^6 cells per ml; read-out: MIC.
Source text: as §1, §2

The test system of another assay is Kl. pneumoniae Y-4*. As to conditions: Klebsiella pneumoniae, 20 h, Kl. pneumoniae Y-4, penicillinase-producing; 10^6 cells per ml; read-out: MIC.
Source text: as §1, §2

Another assay has as its system Ps. aeruginosa GN918**. As to conditions: Pseudomonas aeruginosa, Ps. aeruginosa GN918, cephalospolinase-producing, 10^6 cells per ml.
Source text: as §1
(§3) ** Cephalospolinase-producing bacteria

Another assay relates to E. coli GN5482**. As to conditions: Escherichia coli.
Source text: as §1, §3

The next assay relates to Pro. vulgaris GN76**. The note with it: Proteus vulgaris, 20 h; Pro. vulgaris GN76, cephalospolinase-producing; 10^6 cells per ml; read-out: MIC.
Source text: as §1, §3

Where [1] appears, read: T216, 10^6 cells per ml, 20 hours, read-out: MIC.
The mark [2] stands for this setting: St. aureus FDA209P, 10^6 cells per ml, 37° C., 20 hours, read-out: MIC.
[3] abbreviates: E. coli NIHJ JC-2, 10^6 cells per ml, 37° C., 20 hours, read-out: MIC.
Where [4] appears, read: T111, 10^6 cells per ml, 20 hours, read-out: MIC.
The mark [5] stands for this setting: 20 h, E. coli GN5482, cephalospolinase-producing, 10^6 cells per ml, read-out: MIC.

`CC1Cc2cc(-c3cc(=O)c(C(=O)O)cn3-c3ccc(O)cc3)ccc2O1` (stereo not shown): the MIC (usually the least concentration at which growth counts as inhibited) in the assay on Ps. aeruginosa S-68 was 25 µg/mL (≈ 68.8 µM); in the assay on Ent. cloacae IID977, 3.13 µg/mL (≈ 8.61 µM); against St. aureus FDA209P it was 1.56 µg/mL (≈ 4.29 µM); in the assay on Ps. aeruginosa IFO3445, 50 µg/mL (≈ 138 µM); with Kl. pneumoniae Y-41, 6.25 µg/mL (≈ 17.2 µM); in the assay with E. coli NIHJ JC-2, 1.56 µg/mL (≈ 4.29 µM). Besides, the MIC worked out at 3.13 µg/mL (≈ 8.61 µM) in the assay on Aci. antitratus A-6; 1.56 µg/mL (≈ 4.29 µM) in the assay on Kl. pneumoniae Y-50; 3.13 µg/mL (≈ 8.61 µM) in the assay on Pro. morganii T-216 (setting [1]); 0.78 µg/mL (≈ 2.15 µM) in the assay on E. coli TK-111; 0.78 µg/mL (≈ 2.15 µM) in the assay on Pro. vulgaris GN3027; 12.5 µg/mL (≈ 34.4 µM) against Pro. mirabilis T-111 (T111, 20 h, 10^6 cells per ml). The MIC in the assay on St. aureus F-137* amounted to 3.13 µg/mL (≈ 8.61 µM); with Ps. aeruginosa GN3379*, 25 µg/mL (≈ 68.8 µM); with E. coli TK-3* it was 3.13 µg/mL (≈ 8.61 µM); in the assay on Kl. pneumoniae Y-4*, 12.5 µg/mL (≈ 34.4 µM); in the assay on Ps. aeruginosa GN918** (GN918, 20 h), 12.5 µg/mL (≈ 34.4 µM); in the assay with E. coli GN5482** (GN5482, 20 h), 1.56 µg/mL (≈ 4.29 µM). Also, the MIC in the assay on Pro. vulgaris GN76** came out at 3.13 µg/mL (≈ 8.61 µM).
Consider `Cn1ccc2cc(-c3cc(=O)c(C(=O)O)cn3-c3ccc(O)cc3F)ccc21`, for which the MIC in the assay with Ps. aeruginosa S-68 was 1.56 µg/mL (≈ 4.12 µM); in the assay on Ent. cloacae IID977, 0.39 µg/mL (≈ 1.03 µM); in the assay with St. aureus FDA209P (setting [2]), 0.05 µg/mL (≈ 0.132 µM); in the assay on Ps. aeruginosa IFO3445, 1.56 µg/mL (≈ 4.12 µM); in the assay on Kl. pneumoniae Y-41, 0.39 µg/mL (≈ 1.03 µM); in the assay with E. coli NIHJ JC-2 (setting [3]), ≤ 0.05 µg/mL. The MIC is ≤ 0.05 µg/mL with Aci. antitratus A-6; 0.2 µg/mL (≈ 0.529 µM) with Kl. pneumoniae Y-50; 0.39 µg/mL (≈ 1.03 µM) with Pro. morganii T-216 (setting [1]); ≤ 0.05 µg/mL with E. coli TK-111; ≤ 0.05 µg/mL with Pro. vulgaris GN3027; 0.39 µg/mL (≈ 1.03 µM) in the assay on Pro. mirabilis T-111 (setting [4]). The MIC was ≤ 0.05 µg/mL in the assay on St. aureus F-137*; 3.13 µg/mL (≈ 8.27 µM) in the assay with Ps. aeruginosa GN3379*; 0.2 µg/mL (≈ 0.529 µM) in the assay with E. coli TK-3*; 0.78 µg/mL (≈ 2.06 µM) in the assay with Kl. pneumoniae Y-4*; 0.78 µg/mL (≈ 2.06 µM) with Ps. aeruginosa GN918** (20 h, read-out: MIC); ≤ 0.05 µg/mL in the assay with E. coli GN5482** (setting [5]). In the assay with Pro. vulgaris GN76**, the MIC was 0.39 µg/mL (≈ 1.03 µM).
Consider `CC(=O)Oc1ccc(-n2cc(C(=O)OCCN(C)C)c(=O)cc2-c2ccc3c(ccn3C)c2)c(F)c1`, for which the MIC in the assay with Ps. aeruginosa S-68 was 6.25 µg/mL (≈ 12.7 µM); in the assay with Ent. cloacae IID977 it was 0.78 µg/mL (≈ 1.59 µM); with St. aureus FDA209P (setting [2]), ≤ 0.05 µg/mL; in the assay with Ps. aeruginosa IFO3445, 6.25 µg/mL (≈ 12.7 µM); in the assay on Kl. pneumoniae Y-41 it was 3.13 µg/mL (≈ 6.37 µM); in the assay with E. coli NIHJ JC-2 (setting [3]), 0.1 µg/mL (≈ 0.203 µM). Moreover, the MIC with Aci. antitratus A-6 was 0.39 µg/mL (≈ 0.793 µM); with Kl. pneumoniae Y-50, 0.39 µg/mL (≈ 0.793 µM); with Pro. morganii T-216 (T216, 20 h, 10^6 cells per ml) it was 3.13 µg/mL (≈ 6.37 µM); in the assay on E. coli TK-111, ≤ 0.05 µg/mL; in the assay on Pro. vulgaris GN3027, 0.1 µg/mL (≈ 0.203 µM); in the assay with Pro. mirabilis T-111 (setting [4]), 1.56 µg/mL (≈ 3.17 µM). Also, the MIC in the assay with St. aureus F-137* was ≤ 0.05 µg/mL; with Ps. aeruginosa GN3379* it was 12.5 µg/mL (≈ 25.4 µM); with E. coli TK-3*, 0.39 µg/mL (≈ 0.793 µM); in the assay on Kl. pneumoniae Y-4*, 3.13 µg/mL (≈ 6.37 µM); in the assay on Ps. aeruginosa GN918** (20 h, read-out: MIC), 1.56 µg/mL (≈ 3.17 µM); in the assay with E. coli GN5482** (setting [5]), ≤ 0.05 µg/mL. Besides, the MIC in the assay on Pro. vulgaris GN76** came out at 0.78 µg/mL (≈ 1.59 µM).
In the case of `Cc1cc(O)ccc1-n1cc(C(=O)O)c(=O)cc1-c1ccc2c(ccn2C)c1`, the minimum inhibitory concentration (MIC) in the assay on Ps. aeruginosa S-68 is 3.13 µg/mL (≈ 8.36 µM); in the assay on Ent. cloacae IID977, 0.39 µg/mL (≈ 1.04 µM); with St. aureus FDA209P (setting [2]), ≤ 0.05 µg/mL; in the assay on Ps. aeruginosa IFO3445, 3.13 µg/mL (≈ 8.36 µM); in the assay with Kl. pneumoniae Y-41 it was 0.78 µg/mL (≈ 2.08 µM); with E. coli NIHJ JC-2 (setting [3]) it was ≤ 0.05 µg/mL. The MIC with Aci. antitratus A-6 was ≤ 0.05 µg/mL; in the assay with Kl. pneumoniae Y-50, 0.2 µg/mL (≈ 0.534 µM); with Pro. morganii T-216 (setting [1]), 0.78 µg/mL (≈ 2.08 µM); in the assay on E. coli TK-111, 0.05 µg/mL (≈ 0.134 µM); in the assay on Pro. vulgaris GN3027 it was 0.1 µg/mL (≈ 0.267 µM); with Pro. mirabilis T-111 (setting [4]), 0.78 µg/mL (≈ 2.08 µM). The MIC is ≤ 0.05 µg/mL with St. aureus F-137*; 6.25 µg/mL (≈ 16.7 µM) with Ps. aeruginosa GN3379*; 0.2 µg/mL (≈ 0.534 µM) in the assay on E. coli TK-3*; 0.78 µg/mL (≈ 2.08 µM) in the assay with Kl. pneumoniae Y-4*; 0.39 µg/mL (≈ 1.04 µM) in the assay on Ps. aeruginosa GN918** (20 h, read-out: MIC); ≤ 0.05 µg/mL with E. coli GN5482** (setting [5]). The MIC in the assay with Pro. vulgaris GN76** was 0.39 µg/mL (≈ 1.04 µM).
